Laboratory results: patent publication US20200256882A1, “FLUID PROPERTY MEASUREMENT DEVICES AND METHODS” (Abram Scientific, Inc., priority 2019, published 2020)
Read-outs that look alike come from different tables or passages of the source. Positions of bridges follow the written chain, without caps; N, C: chain ends. Non-standard residues stand in square brackets, D forms with d. Residues, ends and D or L forms follow the SMILES beside them. hArg = N=C(N)NCCCC[C@H](N)C(=O)O; Mpa = O=C(O)CCS

Assays:
[1] = tested on: venous whole blood samples (intrinsic coagulation pathway); assay: Low range activated clotting time (ACT) coagulation test on disposable test strip; type: biochemical; settings: citrated venous whole blood spiked in vitro, 0.0 to 3.0 IU/ml; FIG. 11, R^2=0.99
Procedure: (§1) The disposable test strips used in this example were incorporated with a reagent comprising of kaolin suspended in distilled water, calcium chloride (25 mM) and Tween (2% v/v aqueous solution). Prior to the final assembly of the strip, the reagent was incorporated by dispensing the solution on to the exposed hydrophilic surface in the bottom stack, followed by air-drying in a drying box with humidity control at standard room temperature and pressure. […]
(§2) Results: • In this example, the oscillation characteristics (e.g., amplitude) of the in-plane mode of a physical element in single-use disposable test strips were monitored and recorded before and after introduction of the blood sample, in order to measure the change in viscosity and viscoelasticity of the blood sample as a function of time as it undergoes coagulation. […] An algorithm was used to track the measured oscillation characteristics, viscosity and/or viscoelasticity as a function of time and identify a time to clot formation (measured starting from blood sample insertion time, t=0), in other words known as the activated clotting time (ACT). […] In this specific example, the ACT clotting time measured corresponds to a low-range ACT measurement given the system's sensitivity from 0.0 to 3.0 IU/ml, which corresponds to the low range of heparin therapy used during cardiac and hepatic surgeries.

[2] = tested on: venous whole blood samples (intrinsic coagulation pathway); assay: High range activated clotting time (ACT) coagulation test on disposable test strip; type: biochemical; settings: citrated venous whole blood spiked in vitro, 1.0 to 5.0 IU/ml; FIG. 12, R^2=0.95
Procedure: as §1
as §2, with “high-range” for “low-range”, “1.0” for “0.0”, “5.0” for “3.0”, “high” for “low”

[3] = tested on: whole blood samples (extrinsic coagulation pathway); assay: Thromboelastogram (TEG) coagulation test on disposable test strip; type: biochemical; settings: for peak / maximum thrombin generation (ThrombinPeak): blood samples with increasing concentrations of the anticoagulant (heparin 0 to 3 IU/ml); for clot formation time (R): blood samples with increasing concentrations of the anticoagulant, FIG. 20(a), 21(a); for clot stiffness G: blood samples with increasing concentrations of the substance (cleavable fibrinogen 42 to 231 mg/dL); for ratio of the normalized ThrombinPeak and clot stiffness G: tested samples with increasing anticoagulant concentrations, FIG. 22(d)
Procedure: The disposable test strips used in this example were incorporated with a reagent comprising of rabbit brain thromboplastin (Pacific Hemostasis Prothrombin Time reagent, Thromboplastin-DS, Product# 29-227-3), calcium chloride (25 mM) and Tween (2% v/v aqueous solution). Prior to the final assembly of the strip, the reagent was incorporated by dispensing the solution on to the exposed hydrophilic surface in the bottom stack, followed by air-drying in a drying box with humidity control at standard room temperature and pressure. The ratio of the volume of the reagent to blood tested in the chamber was maintained at close to 2:1 to ensure successful initiation of the blood coagulation reaction. […] In this example, venous whole blood and finger-stick, capillary whole blood samples from a normal subject were used. In addition, finger-stick, capillary whole blood samples from patients undergoing warfarin therapy at an anticoagulation clinic were used. Following procurement of informed consent under an Institutional Review Board (IRB) approved protocol, phlebotomy was performed to extract the blood sample by venipuncture and the sample was directly dispensed into blood collection tubes containing sodium citrate anticoagulant. The citrated whole blood samples were contrived in vitro to incorporate varying amounts of unfractionated heparin (0 to 3 IU/ml), cleavable fibrinogen (42 to 231 mg/dL), Eptifibatide (GPIIb/IIIa platelet inhibitor, 0 to 12 μg/mL), and tissue plasminogen activator (tPA, 0 to 1.8 nM). Further in some tests, following procurement of informed consent under an Institutional Review Board (IRB) approved protocol, a standard lancet was used to extract blood samples by finger-stick and a standard microliter pipette or dropper was used to pick up the sample for insertion into the disposable test strip. Lastly, in some tests, blood samples were also tested using 2 Haemonetics' TEG-5000 instruments (2 tests per instrument) and their corresponding TEG curve & parameters were recorded, in order to perform side-by-side comparison with the results generated using the disposable test strips. Results: • In this example, the oscillation characteristics (amplitude and phase) of the in-plane vibration mode of a physical element in single-use disposable test strips were measured as a function of frequency in the vicinity of the resonance frequency, and these amplitude & phase frequency scans were monitored periodically to determine different aspects of the blood coagulation cascade. The blood sample upon entering the chamber reacted with the dried reagent and started to coagulate through the extrinsic coagulation pathway. An example of the amplitude and phase frequency scans of an oscillating physical element in a disposable test strip with a blood sample in the chamber undergoing coagulation is shown in FIGS. 13(a) and 13(b), respectively, wherein the amplitude and phase at the resonance frequency peak are seen to decrease in magnitude as the blood coagulation cascade progresses. These amplitude and phase frequency scans monitored periodically over time were used to perform a Thromboelastogram (TEG) test, wherein a characteristic […] shaped viscoelastic curve and parameters were extracted. The TEG-like viscoelastic parameters extracted were clot formation time (R), activated clotting time (ACT), maximum thrombin generation (ThrombinPeak), clot stiffness (G), platelet contraction rate (Plt-Cont), and fibrinolysis rate (Lys-Rate). A mathematical model of the viscoelastic oscillation damping of the physical element, which incorporated the different kinetic processes in the coagulation cascade, was used to fit to data from the amplitude and phase frequency scans measured as a function of time. […]

[4] = tested on: venous whole blood samples (intrinsic coagulation pathway); assay: Activated partial thromboplastin time (aPTT) coagulation test on disposable test strip; type: biochemical; settings: citrated venous whole blood spiked in vitro, 0.0 to 1.0 IU/ml; FIG. 10, R^2=0.92
Procedure: as §1, with “Actin-FS activated partial thromboplastin time reagent (Siemens Diagnostics, Catalog# B4218-20),” for “kaolin suspended in distilled water,”, “pressure. The ratio of the volume of the reagent to blood tested in the chamber was maintained at close to 2:1 to ensure successful initiation of the blood coagulation reaction.” for “pressure.”
In this example, the oscillation characteristics (e.g., amplitude) of the in-plane mode of a physical element in single-use disposable test strips were monitored and recorded before and after introduction of the blood sample, in order to measure the change in viscosity and viscoelasticity of the blood sample as a function of time as it undergoes coagulation. […] An algorithm was used to track the measured oscillation characteristics, viscosity and/or viscoelasticity as a function of time and identify a time to clot formation (measured starting from blood sample insertion time, t=0), in other words known as the partial thromboplastin time (aPTT). […]

[5] = Procedure: Ethylene glycol solutions were prepared using de-ionized water in varying concentrations ranging from 0 to 40.38% as shown in Table I. The solutions were prepared in 20 ml de-ionized water and corresponding volume of ethylene glycol solutions concentrations. The fluid sample, when introduced into the assembled disposable test strip through the inlet port (i.e. rectangular opening 207 in FIG. 2(a)), wicked into the chamber under the region of the substrate layer leading up to the suspended beam, followed by the fluid flow being directed through the chamber along the beam length while maintaining contact with the underside of the beam (at or slightly beyond its width), and finally, flowing through the chamber under the region of the substrate layer past the beam leading up to the vent port (i.e. rectangular opening 208 in FIG. 2(a)), which permits air to escape from the chamber as it is loaded with the fluid sample.
[6] = 16.22 % v/v in de-ionized water
[7] = 40.38 % v/v in de-ionized water
[8] = 3 warfarin patient samples, increasing warfarin activity, FIG. 15

heparin
uncalibrated ACT clotting time (low-range) [1]: linear dose response | uncalibrated ACT clotting time (high-range) [2]: linear dose response | peak / maximum thrombin generation (ThrombinPeak) [3]: decrease | activated clotting time (ACT), time to peak thrombin generation ([3]; blood samples with increasing heparin concentrations from 0 to 3 IU/ml, FIG. 16): increase | uncalibrated aPTT clotting time [4]: linear dose response

Dabigatran
peak / maximum thrombin generation (ThrombinPeak) [3]: limited to no effect | clot formation time (R) [3]: increasing linear trend | clot stiffness G [3]: reducing | ratio of the normalized ThrombinPeak and clot stiffness G [3]: increasing

N=C(N)NCCCC[C@@H]1NC(=O)CCSSC[C@@H](C(N)=O)NC(=O)[C@@H]2CCCN2C(=O)[C@H](Cc2c[nH]c3ccccc23)NC(=O)[C@H](CC(=O)O)NC(=O)CNC1=O [Eptifibatide] ([Mpa][hArg]GDWPC-NH2; disulfide 1-7)
rate of platelet contraction (Plt-Cont) ([3]; blood samples with increasing concentrations, 0 to 12 μg/mL, FIG. 18(b)): decreasing trend

O=C(NC[C@H]1CN(c2ccc(N3CCOCC3=O)cc2)C(=O)O1)c1ccc(Cl)s1 [Rivaroxaban]
peak / maximum thrombin generation (ThrombinPeak) [3]: reducing | clot formation time (R) [3]: increasing linear trend | clot stiffness G [3]: limited to no effect | ratio of the normalized ThrombinPeak and clot stiffness G [3]: decreasing linear trend

OCCO [Ethylene Glycol, ethylene glycol]
Density ([5]; 10 % v/v in de-ionized water): 1.035 gm/cc | Viscosity ([5]; 10 % v/v in de-ionized water): 1.9903 cP | Density [5, 6]: 1.052 gm/cc | Viscosity [5, 6]: 2.7938 cP | Density ([5]; 22.5 % v/v in de-ionized water): 1.065 gm/cc | Viscosity ([5]; 22.5 % v/v in de-ionized water): 3.711 cP | Density [5, 7]: 1.088 gm/cc | Viscosity [5, 7]: 6.8247 cP

CC(=O)CC(c1ccccc1)c1c(O)c2ccccc2oc1=O (stereo not shown) [warfarin]
maximum thrombin generation ([3]; 3 warfarin patient samples, increasing warfarin activity (PT 17.4, 36.4, 54.4 seconds), FIG. 15): steady decrease | time to maximum fibrin formation (TMA) [3, 8]: delayed | time to maximum thrombin generation (analogous to the ACT) [3, 8]: delayed
